Assay results taken from patent US20260159512A1, “BCAT2 INHIBITORS” (AGIOS PHARMACEUTICALS, INC., priority 2021, published 2026).

Tests used:
Conditions in all cases: average where tested multiple times
hBCAT1 = target: T1, hBCAT1 (Homo sapiens, UniProt P54687); experiment: BCAT1 in vitro enzyme inhibition assay (resazurin/diaphorase-coupled fluorescence); type: biochemical
T1 sequence (P54687 1-386): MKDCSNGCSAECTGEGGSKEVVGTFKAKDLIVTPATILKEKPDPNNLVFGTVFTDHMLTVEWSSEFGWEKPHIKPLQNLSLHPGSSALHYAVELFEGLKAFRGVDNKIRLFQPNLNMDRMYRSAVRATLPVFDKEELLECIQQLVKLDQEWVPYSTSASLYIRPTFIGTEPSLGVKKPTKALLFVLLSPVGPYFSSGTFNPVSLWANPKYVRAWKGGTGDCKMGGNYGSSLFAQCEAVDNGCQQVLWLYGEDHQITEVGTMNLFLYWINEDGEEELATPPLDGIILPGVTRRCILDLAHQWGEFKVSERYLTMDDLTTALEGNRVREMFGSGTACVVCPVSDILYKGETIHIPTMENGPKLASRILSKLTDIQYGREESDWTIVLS
Protocol: BCAT1 In Vitro Enzyme Inhibition Assay
Meanwhile the Substrate Mix was prepared.
Test Compound Preparation:
Test compounds were prepared at 50× final concentration in DMSO, 1 to 3 dilutions were made for 10 points. The compounds were added to the assay as a 1 to 50 dilution (1 μL in 50 μL) to yield a top assay final concentration of 100 μM, decreasing 3-fold for 10 points. […] All tests were performed in technical duplicate.
Where a compound was tested multiple times, the average value of the tests is reported.

BCAT2 [1] = target: T2, BCAT2 (Homo sapiens, UniProt O15382); experiment: BCAT2 in vitro enzyme inhibition assay (resazurin/diaphorase-coupled fluorescence); type: biochemical; design: key to BCAT2 Enzyme Inhibition: A: less than or equal to 0.100 μM; B: greater than 0.100 and less than or equal to 0.500 μM; C: greater than 0.500 and less than or equal to 1.000 μM; d: greater than 1.000 μM; E: no fit
T2 sequence (O15382 28-392): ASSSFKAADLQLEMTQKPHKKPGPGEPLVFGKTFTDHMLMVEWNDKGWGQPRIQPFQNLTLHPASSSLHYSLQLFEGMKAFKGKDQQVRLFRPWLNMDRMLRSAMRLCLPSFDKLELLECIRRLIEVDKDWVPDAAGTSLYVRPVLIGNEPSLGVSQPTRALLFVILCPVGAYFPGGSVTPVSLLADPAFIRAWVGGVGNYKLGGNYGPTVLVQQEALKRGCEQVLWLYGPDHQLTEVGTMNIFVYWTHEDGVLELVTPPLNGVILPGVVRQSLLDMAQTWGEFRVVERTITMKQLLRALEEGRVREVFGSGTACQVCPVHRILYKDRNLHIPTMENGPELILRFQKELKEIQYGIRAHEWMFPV
In short: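 Coupled fluorescence readout: glutamate formed from L-leucine/α-ketoglutarate transamination drives GDH/NAD/diaphorase reduction of resazurin (Ex 540/Em 590). Human BCAT2 was first exposed 1 h at room temperature to compound, top final 100 μM in 3-fold, 10-point series; substrate reaction ran 1 h before SDS quench, in technical duplicate with DMSO max and enzyme-free min controls.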

BCAT2 [2] = target: T2, BCAT2; experiment: BCAT2 in vitro cell inhibition using engineered A549 cells (KMV cell assay, 13C6-KMV by LC-MS/MS); type: cell-based; design: The result was an engineered A549 cell line that expressed endogenous BCAT2; endogenous in cells; host or cells: A549 cells with MUT and BCAT1 knocked out by CRISPR/CAS9; key to BCAT2 Cell Inhibition: A: less than or equal to 0.100 μM; B: greater than 0.100 and less than or equal to 0.500 μM; C: greater than 0.500 and less than or equal to 1.000 μM; d: greater than 1.000 μM; E: no fit

| Compound | IC50 (hBCAT1) | IC50 (BCAT2 [1]) | BCAT2 Cell Inhibition (BCAT2 [2]) | BCAT2 Enzyme Inhibition (BCAT2 [1]) | IC50 (BCAT2 [2]) |
| --- | --- | --- | --- | --- | --- |
| O=C(NC1COCC(n2c(-c3ncccc3F)nc3cnc(-n4ccnn4)cc32)C1)c1ncc(C(F)F)s1 (single isomer, unassigned) [Example 144, 5-(difluoromethyl)-N-(5-(2-(3-fluoropyridin-2-yl)-6-(1H-1,2,3-triazol-1-yl)-1H-imidazo[4,5-c]pyridin-1-yl)tetrahydro-2H-pyran-3-yl)thiazole-2-carboxamide] | > 5000 nM | 500 to 1000 nM | – | – | – |
| O=C(NC1COCC(n2c(-c3ccccn3)nc3cnc(-n4ccnn4)cc32)C1)c1ncc(C(F)F)s1 (single isomer, unassigned) [Example 146, 5-(difluoromethyl)-N-(5-(2-(pyridin-2-yl)-6-(1H-1,2,3-triazol-1-yl)-1H-imidazo[4,5-c]pyridin-1-yl)tetrahydro-2H-pyran-3-yl)thiazole-2-carboxamide] | > 5000 nM | > 1000 nM | – | – | – |
| Cc1nc2cnc(-n3nccn3)cc2n1[C@@H]1CCC[C@H](NC(=O)c2ccc(Br)s2)C1 [Example 51, 5-bromo-N-((1S,3R)-3-(2-methyl-6-(2H-1,2,3-triazol-2-yl)-1H-imidazo[4,5-c]pyridin-1-yl)cyclohexyl)thiophene-2-carboxamide] | > 5000 nM | > 1000 nM | – | – | – |
| O=C(N[C@H]1CCC[C@@H](n2c(-n3cccn3)nc3cnc(-n4ccnn4)cc32)C1)c1ncc(C(F)F)s1 [Example 57, N-((1S,3R)-3-(2-(1H-pyrazol-1-yl)-6-(1H-1,2,3-triazol-1-yl)-1H-imidazo[4,5-c]pyridin-1-yl)cyclohexyl)-5-(difluoromethyl)thiazole-2-carboxamide] | > 5000 nM | 500 to 1000 nM | – | – | – |
| CC(C)(O)c1nc2cnc(-n3cncn3)cc2n1[C@@H]1CCC[C@H](NC(=O)c2ccc(Br)s2)C1 [Example 92, 5-bromo-N-((1S,3R)-3-(2-(2-hydroxypropan-2-yl)-6-(1H-1,2,4-triazol-1-yl)-1H-imidazo[4,5-c]pyridin-1-yl)cyclohexyl)thiophene-2-carboxamide] | > 5000 nM | > 1000 nM | – | – | – |
| CO[C@@H]1[C@H](NC(=O)c2ncc(Cl)s2)CCC[C@@H]1n1c(-c2ccccc2F)nc2cnc(-c3nc[nH]n3)cc21 [Example 434, 5-chloro-N-((1R,2R,3S)-3-(2-(2-fluorophenyl)-6-(1H-1,2,4-triazol-3-yl)-1H-imidazo[4,5-c]pyridin-1-yl)-2-methoxycyclohexyl)thiazole-2-carboxamide] | – | – | E | E | – |
| CO[C@@H]1C[C@@H](NC(=O)c2ncc(Cl)s2)C[C@@H](n2c(CC(C)C)nc3cnc(-c4ncccn4)cc32)C1 [Example 436, 5-chloro-N-((1S,3R,5R)-3-(2-isobutyl-6-(pyrimidin-2-yl)-1H-imidazo[4,5-c]pyridin-1-yl)-5-methoxycyclohexyl)thiazole-2-carboxamide] | – | 500 to 1000 nM | E | – | – |

The next lines start with the values.

| IC50 (hBCAT1) | IC50 (BCAT2 [1]) | BCAT2 Cell Inhibition (BCAT2 [2]) | BCAT2 Enzyme Inhibition (BCAT2 [1]) | IC50 (BCAT2 [2]) | Compound |
| --- | --- | --- | --- | --- | --- |
| < 500 nM | ≤ 100 nM | – | – | – | CC(C)Cc1nc2cnc(-c3ncccn3)cc2n1[C@H]1C[C@H](O)C[C@@H](NC(=O)c2ncc(Cl)s2)C1 (stereo in doubt) [Example 398, 5-chloro-N-((1S,3R,5R)-3-hydroxy-5-(2-isobutyl-6-(pyrimidin-2-yl)-1H-imidazo[4,5-c]pyridin-1-yl)cyclohexyl)thiazole-2-carboxamide] |
| < 500 nM | ≤ 100 nM | – | – | – | CC(C)Cc1nc2cnc(-c3nc[nH]n3)cc2n1[C@@H]1C[C@H](NC(=O)c2ccc(Cl)s2)CC(F)(F)C1 (stereo in doubt) [Example 454, 5-chloro-N-((1S,5R)-3,3-difluoro-5-(2-isobutyl-6-(1H-1,2,4-triazol-3-yl)-1H-imidazo[4,5-c]pyridin-1-yl)cyclohexyl)thiophene-2-carboxamide] |
| < 500 nM | ≤ 100 nM | – | – | – | O=C(N[C@H]1CCC[C@@H](n2c(-c3ccccc3F)nc3cnc(-n4cncn4)cc32)C1)c1ccc(Br)s1 [Example 17, 5-bromo-N-((1S,3R)-3-(2-(2-fluorophenyl)-6-(1H-1,2,4-triazol-1-yl)-1H-imidazo[4,5-c]pyridin-1-yl)cyclohexyl)thiophene-2-carboxamide] |
| 1000 to 5000 nM | ≤ 100 nM | – | – | – | C#Cc1cnc(C(=O)N[C@H]2CCC[C@@H](n3c(-c4ccccn4)nc4cnc(-n5cncn5)cc43)C2)s1 [Example 27, 5-ethynyl-N-((1S,3R)-3-(2-(pyridin-2-yl)-6-(1H-1,2,4-triazol-1-yl)-1H-imidazo[4,5-c]pyridin-1-yl)cyclohexyl)thiazole-2-carboxamide] |
| 1000 to 5000 nM | ≤ 100 nM | – | – | – | Cc1cn(-c2cc3c(cn2)nc(-c2ccccn2)n3[C@@H]2CCC[C@H](NC(=O)c3ccc(Br)s3)C2)nn1 [Example 40, 5-bromo-N-((1S,3R)-3-(6-(4-methyl-1H-1,2,3-triazol-1-yl)-2-(pyridin-2-yl)-1H-imidazo[4,5-c]pyridin-1-yl)cyclohexyl)thiophene-2-carboxamide] |
| > 5000 nM | ≤ 100 nM | – | – | – | O=C(N[C@H]1CCC[C@@H](n2c(-c3ncccc3F)nc3cnc(N4CCNC4=O)cc32)C1)c1ncc(C(F)F)s1 [Example 54, 5-(difluoromethyl)-N-((1S,3R)-3-(2-(3-fluoropyridin-2-yl)-6-(2-oxoimidazolidin-1-yl)-1H-imidazo[4,5-c]pyridin-1-yl)cyclohexyl)thiazole-2-carboxamide] |
| > 5000 nM | ≤ 100 nM | – | – | – | CC(C)(O)c1cnn(-c2cc3c(cn2)nc(-c2ccccn2)n3[C@@H]2CCC[C@H](NC(=O)c3ncc(C(F)F)s3)C2)n1 [Example 70, 5-(difluoromethyl)-N-((1S,3R)-3-(6-(4-(2-hydroxypropan-2-yl)-2H-1,2,3-triazol-2-yl)-2-(pyridin-2-yl)-1H-imidazo[4,5-c]pyridin-1-yl)cyclohexyl)thiazole-2-carboxamide] |
| – | ≤ 100 nM | – | – | 100 to 500 nM | CS(=O)(=O)N1C[C@@H](NC(=O)c2ccc(Cl)s2)C[C@@H](n2c(-c3ccccc3F)nc3cnc(-c4nc[nH]n4)cc32)C1 [Example 459, 5-chloro-N-((3S,5R)-5-(2-(2-fluorophenyl)-6-(1H-1,2,4-triazol-3-yl)-1H-imidazo[4,5-c]pyridin-1-yl)-1-(methylsulfonyl)piperidin-3-yl)thiophene-2-carboxamide] |
| – | ≤ 100 nM | – | – | 500 to 1000 nM | COC(=O)N1C[C@@H](NC(=O)c2ccc(Cl)s2)C[C@@H](n2c(-c3ccccc3F)nc3cnc(-c4nc[nH]n4)cc32)C1 [Example 463, methyl (3S,5R)-3-(5-chlorothiophene-2-carboxamido)-5-(2-(2-fluorophenyl)-6-(1H-1,2,4-triazol-3-yl)-1H-imidazo[4,5-c]pyridin-1-yl)piperidine-1-carboxylate] |
| – | ≤ 100 nM | – | – | ≤ 100 nM | O=C(N[C@H]1CCC[C@@H](n2c(-c3ccccc3F)nc3ccc(-c4ncco4)cc32)[C@@H]1O)c1ncc(Cl)s1 [Example 465, 5-chloro-N-((1S,2R,3R)-3-(2-(2-fluorophenyl)-6-(oxazol-2-yl)-1H-benzo[d]imidazol-1-yl)-2-hydroxycyclohexyl)thiazole-2-carboxamide] |
| – | ≤ 100 nM | – | – | ≤ 100 nM | O=C(N[C@H]1CCC[C@@H](n2c(-c3ccccc3F)nc3ccc(-c4ncccn4)cc32)[C@@H]1O)c1ncc(Cl)s1 [Example 466, 5-chloro-N-((1S,2R,3R)-3-(2-(2-fluorophenyl)-6-(pyrimidin-2-yl)-1H-benzo[d]imidazol-1-yl)-2-hydroxycyclohexyl)thiazole-2-carboxamide] |
